These results are taken from patent US9474702B2, “Cosmetic use of salicylic acid derivatives” (Avon Products, Inc., priority 2013, dated 2016).

This experiment concerns the target T1, recombinant human (rh) KLK5 protease (Homo sapiens, UniProt Q9Y337).
T1 construct: purchased R&D Systems 1108-SE
T1 sequence (Q9Y337 23-293): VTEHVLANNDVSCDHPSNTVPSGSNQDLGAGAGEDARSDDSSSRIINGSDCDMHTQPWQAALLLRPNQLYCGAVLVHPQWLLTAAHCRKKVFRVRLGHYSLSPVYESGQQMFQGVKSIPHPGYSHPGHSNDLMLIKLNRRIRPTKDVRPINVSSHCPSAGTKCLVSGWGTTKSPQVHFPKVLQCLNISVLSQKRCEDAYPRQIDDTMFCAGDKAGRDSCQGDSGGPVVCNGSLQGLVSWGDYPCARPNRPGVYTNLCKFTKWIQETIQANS
Put plainly: Enzymatic activity of Kallikrein 5 (KLK5), fluorogenic peptide substrate Boc-V-P-R-AMC. It is filed as biochemical. The method, then: The compound of Formula 1a was assayed for enzymatic activity of Kallikrein 5 (KLK5) as follows, and its activity compared to that of salicylic acid. The KLK5 activity of the compound of Formula 1a was calculated as a percentage of KLK5 activity relative to salicylic acid.
In the stratum corneum, skin's outermost layer, cell-to-cell cohesion depends primarily on proteins known as the corneodesmosomes. During skin remodeling and renewal dead cells are shed from the skin surface by the action of native proteases that break down the corneodesmosomes. […] To this end, the enzymatic activity of a member of the KLK family, recombinant human (rh) KLK5, was monitored following pre-incubation with actives and measuring the rate of peptide bond cleavage of a synthetic substrate.
Enzymatic activity of KLK5 was measured by incubating recombinant human (rh) KLK5 protease (R&D Systems, Cat No. 1108-SE) with a specific fluorogenic peptide substrate Boc-V-P-R-AMC (R&D Systems, Cat No. ES011). […] Increase in fluorescence reading indicates an increase in rhKLK5 activity. […] After 60 seconds of incubation, fluorescence was measured at 340 nm (Excitation wavelength) and 485 nm (Emission wavelength) every 1 minute for 7 minutes. Rate (kinetics) of enzyme activity was calculated as follows: Rate of enzyme activity=Change of fluorescent reading (after background correction)/Change of reaction time (min). […]

Regarding `O=C(Oc1ccccc1C(=O)O)c1ccccc1O` [compound of Formula 1a], where the note is “relative to salicylic acid, dimer tested at a concentration approximately half of that of salicylic acid, difference not significant”, the “KLK5 activity as a percentage relative to salicylic acid (stimulator effect)” value is listed as “about 90%”. Also, the “KLK5 stimulation (in words)” value (rhKLK5 enzymatic activity) was “potent stimulator of KLK5”.
